Assay [1] deals with C2C12 muscle cells. The experiment in a line: Oxygen consumption rate of TNF-α damaged muscle cells (Seahorse XF24). The conditions noted are these: TNF-α 10 ng/ml, relative to control group (1-fold); for oxygen consumption of ATP production: FIG. 1A; for oxygen consumption of maximal respiration: FIG. 1B. It counts as cell-based, mice. The source says:
(§1) It is known that severe exercise or long-term exercise may lead to a large release of tumor necrosis factor alpha (TNF-α) and a decrease in mitochondria functions such as oxygen consumption rate (OCR, which represents the ability of aerobic metabolism of mitochondria) and extracellular acidification rate (ECAR, which represents the ability of glycolysis of mitochondria), so that the mitochondria cannot generate enough energy to supply cells in a subject, thereby resulting in the occurrence of fatigue in the subject. In this example, the C2C12 muscle cells with TNF-α induced damages were administered with the composition of the present invention, which comprises Cistanche tubulosa extract and ubiquinol, to understand the effect of the composition on anti-fatigue.
First, C2C12 cells (i.e., the muscle cells of mice; purchased from ATCC) were cultivated in an H-DMEM medium (purchased from Sigma company) containing 10% fetal bovine serum (purchased from BI company). After the C2C12 cells grew to the confluence rate of 80% (i.e., the mixed monolayer cells were accounted for 80% of the area), the cells were divided into seventeen groups (including a control group, a TNF-α group and fifteen experimental groups) and separately subjected to the following treatments: • 1. Control group: cells were cultivated in an H-DMEM medium for 6 hours; and then, the medium was replaced with a differentiation medium (containing an H-DMEM medium and 2% horse serum), and the cells were continuously cultivated for another 4 days. • 2. TNF-α group: cells were cultivated in an H-DMEM medium for 6 hours; and then, the medium was replaced with a differentiation medium (containing an H-DMEM medium and 2% horse serum) being externally added with TNF-α (to a final concentration of 10 ng/ml), and the cells were continuously cultivated overnight; finally, the medium was replaced with a differentiation medium, and the cells were cultivated for another 4 days. • 3. […] In Table 1, the extract and ubiquinol were dissolved in a differentiation medium, and the unit “μg/ml” represents the weight of extract (as dry weight) and/or ubiquinol (as dry weight) in every milliliter of the differentiation medium.
The cells in the control group, TNF-α group and experimental groups 1 to 15 provided by Example (1-1) were respectively taken, and the oxygen consumption rates (including the oxygen consumption of ATP production and the oxygen consumption of maximal respiration) thereof were examined by a cell energy metabolism analyzer (Seahorse XF24). Then, the result of the control group was served as a basis (i.e., the oxygen consumption rate of the control group was set as 1-fold) to calculate the oxygen consumption rate of each group.

Assay [2] deals with C2C12 muscle cells. Description: Extracellular acidification rate of TNF-α damaged muscle cells (cell energy metabolism analyzer). The assay is classed as cell-based, mice. The note with it: TNF-α 10 ng/ml, relative to control group (1-fold).
From the text: as §1
First, C2C12 cells (i.e., the muscle cells of mice; purchased from ATCC) were cultivated in an H-DMEM medium (purchased from Sigma company) containing 10% fetal bovine serum (purchased from BI company). After the C2C12 cells grew to the confluence rate of 80% (i.e., the mixed monolayer cells were accounted for 80% of the area), the cells were divided into seventeen groups (including a control group, a TNF-α group and fifteen experimental groups) and separately subjected to the following treatments: • 1. […]

With `COc1c(O)c(C)c(C/C=C(\C)CC/C=C(\C)CC/C=C(\C)CC/C=C(\C)CC/C=C(\C)CC/C=C(\C)CC/C=C(\C)CC/C=C(\C)CC/C=C(\C)CCC=C(C)C)c(O)c1OC` [ubiquinol], in the assay on C2C12 muscle cells [1], the “oxygen consumption of ATP production” value is given as “cannot alleviate” and the “oxygen consumption of maximal respiration” value is recorded as “cannot alleviate”.

In the case of TNF-α, in the assay with C2C12 muscle cells [1], the “oxygen consumption of ATP production” value is given as “significantly decreased” and the “oxygen consumption of maximal respiration” value is reported as “significantly decreased”. Further, the glycolysis level result with C2C12 muscle cells [2] (FIG. 2A) was “significantly increased”. Besides, the glycolytic reserve result in the assay with C2C12 muscle cells [2] (FIG. 2B) is given as “significantly decreased”.

(Values after US10485836B2, “Anti-fatigue composition used for increasing endurance performance, and use of the same” (SINPHAR PHARMACEUTICAL CO., LTD., priority 2017, dated 2019).)
